{"source": "PubChem BioAssay AID2060614", "about": "(Molecular Pharmacology Branch, DTP, NCI, 2025)", "tested_on": "598228-144-R-J1-PDC complex spheroids, viability", "assay": "Anticancer human tumor 598228-144-R-J1-PDC patient-derived serous endometrial adenocarcinoma cell line growth inhibition [CLK]", "conditions": "for pIC50: curve of first compound; for viability, T/C: stronger effect = lower value", "summary_of_the_method": "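Multi-cell-type spheroids combined patient-derived tumor cells with HUVEC endothelial cells and human mesenchymal stem cells. Paired agents were dosed in half-log steps down from about clinical Cmax, or from 10 microM where Cmax was unknown.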", "key": {"[1]": {"conditions": "second compound 0.0316 µM, first compound 0.0316 µM"}, "[2]": {"conditions": "second compound 0.0316 µM, first compound 0.1 µM"}, "[3]": {"conditions": "second compound 0.0316 µM, first compound 0.316 µM"}, "[4]": {"conditions": "second compound 0.0316 µM, first compound 1 µM"}, "[5]": {"conditions": "second compound 0.0316 µM, first compound 3.16 µM"}, "[6]": {"conditions": "second compound 0.0316 µM, first compound 10 µM"}, "[7]": {"conditions": "second compound 0.1 µM, first compound 0.0316 µM"}, "[8]": {"conditions": "second compound 0.1 µM, first compound 0.1 µM"}, "[9]": {"conditions": "second compound 0.1 µM, first compound 0.316 µM"}, "[10]": {"conditions": "second compound 0.1 µM, first compound 1 µM"}, "[11]": {"conditions": "second compound 0.1 µM, first compound 3.16 µM"}, "[12]": {"conditions": "second compound 0.1 µM, first compound 10 µM"}, "[13]": {"conditions": "second compound 0.316 µM, first compound 0.0316 µM"}, "[14]": {"conditions": "second compound 0.316 µM, first compound 0.1 µM"}, "[15]": {"conditions": "second compound 0.316 µM, first compound 0.316 µM"}, "[16]": {"conditions": "second compound 0.316 µM, first compound 1 µM"}, "[17]": {"conditions": "second compound 0.316 µM, first compound 3.16 µM"}, "[18]": {"conditions": "second compound 0.316 µM, first compound 10 µM"}, "[19]": {"conditions": "second compound 1 µM, first compound 0.0316 µM"}, "[20]": {"conditions": "second compound 1 µM, first compound 0.1 µM"}, "[21]": {"conditions": "second compound 1 µM, first compound 0.316 µM"}, "[22]": {"conditions": "second compound 1 µM, first compound 1 µM"}, "[23]": {"conditions": "second compound 1 µM, first compound 3.16 µM"}, "[24]": {"conditions": "second compound 1 µM, first compound 10 µM"}, "[25]": {"conditions": "second compound 3.16 µM, first compound 0.0316 µM"}, "[26]": {"conditions": "second compound 3.16 µM, first compound 0.1 µM"}, "[27]": {"conditions": "second compound 3.16 µM, first compound 0.316 µM"}, "[28]": {"conditions": "second compound 3.16 µM, first compound 1 µM"}, "[29]": {"conditions": "second compound 3.16 µM, first compound 3.16 µM"}, "[30]": {"conditions": "second compound 3.16 µM, first compound 10 µM"}, "[31]": {"conditions": "second compound 10 µM, first compound 0.0316 µM"}, "[32]": {"conditions": "second compound 10 µM, first compound 0.1 µM"}, "[33]": {"conditions": "second compound 10 µM, first compound 0.316 µM"}, "[34]": {"conditions": "second compound 10 µM, first compound 1 µM"}, "[35]": {"conditions": "second compound 10 µM, first compound 3.16 µM"}, "[36]": {"conditions": "second compound 10 µM, first compound 10 µM"}}, "note": "pIC50: −log10 of the molar value.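 Also: spheroids exposed to compounds for seven days before readout.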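 For viability, T/C in this document: 100% = DMSO vehicle control wells.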", "data": [{"smiles": "COc1cccc2c1C(=O)c1c(O)c3c(c(O)c1C2=O)CC(O)(C(=O)CO)CC3OC1CC(N)C(O)C(C)O1", "note": "(centres undefined) + CN1CCN(c2cc(C(=O)Nc3cc4cc(-c5cnn(C)c5)ccc4cn3)ccn2)CC1", "values": [{"measurement": "pIC50", "setting": "second compound 0.0316 µM", "result": 6.58}, {"measurement": "pIC50", "setting": "second compound 0.1 µM", "result": 6.65}, {"measurement": "pIC50", "setting": "second compound 0.316 µM", "result": "> 7.50"}, {"measurement": "pIC50", "setting": "second compound 1 µM", "result": "> 7.50"}, {"measurement": "pIC50", "setting": "second compound 3.16 µM", "result": "> 7.50"}, {"measurement": "pIC50", "setting": "second compound 10 µM", "result": "> 7.50"}, {"measurement": "viability, T/C", "setting": "[1]", "result": 114, "unit": "%"}, {"measurement": "viability, T/C", "setting": "[2]", "result": 116, "unit": "%"}, {"measurement": "viability, T/C", "setting": "[3]", "result": 37.5, "unit": "%"}, {"measurement": "viability, T/C", "setting": "[4]", "result": 7.36, "unit": "%"}, {"measurement": "viability, T/C", "setting": "[5]", "result": 0.34, "unit": "%"}, {"measurement": "viability, T/C", "setting": "[6]", "result": 0.49, "unit": "%"}, {"measurement": "viability, T/C", "setting": "[7]", "result": 150, "unit": "%"}, {"measurement": "viability, T/C", "setting": "[8]", "result": 109, "unit": "%"}, {"measurement": "viability, T/C", "setting": "[9]", "result": 24.6, "unit": "%"}, {"measurement": "viability, T/C", "setting": "[10]", "result": 3.45, "unit": "%"}, {"measurement": "viability, T/C", "setting": "[11]", "result": 0.34, "unit": "%"}, {"measurement": "viability, T/C", "setting": "[12]", "result": 1.62, "unit": "%"}, {"measurement": "viability, T/C", "setting": "[13]", "result": 14.6, "unit": "%"}, {"measurement": "viability, T/C", "setting": "[14]", "result": 14.6, "unit": "%"}, {"measurement": "viability, T/C", "setting": "[15]", "result": 3.54, "unit": "%"}, {"measurement": "viability, T/C", "setting": "[16]", "result": 0.66, "unit": "%"}, {"measurement": "viability, T/C", "setting": "[17]", "result": 0.34, "unit": "%"}, {"measurement": "viability, T/C", "setting": "[18]", "result": 2.75, "unit": "%"}, {"measurement": "viability, T/C", "setting": "[19]", "result": 1.14, "unit": "%"}, {"measurement": "viability, T/C", "setting": "[20]", "result": 0.59, "unit": "%"}, {"measurement": "viability, T/C", "setting": "[21]", "result": 1, "unit": "%"}, {"measurement": "viability, T/C", "setting": "[22]", "result": 0.68, "unit": "%"}, {"measurement": "viability, T/C", "setting": "[23]", "result": 0.96, "unit": "%"}, {"measurement": "viability, T/C", "setting": "[24]", "result": 2.88, "unit": "%"}, {"measurement": "viability, T/C", "setting": "[25]", "result": 1.47, "unit": "%"}, {"measurement": "viability, T/C", "setting": "[26]", "result": 3.06, "unit": "%"}, {"measurement": "viability, T/C", "setting": "[27]", "result": 0.97, "unit": "%"}, {"measurement": "viability, T/C", "setting": "[28]", "result": 0.79, "unit": "%"}, {"measurement": "viability, T/C", "setting": "[29]", "result": 1.31, "unit": "%"}, {"measurement": "viability, T/C", "setting": "[30]", "result": 4.32, "unit": "%"}, {"measurement": "viability, T/C", "setting": "[31]", "result": 0.73, "unit": "%"}, {"measurement": "viability, T/C", "setting": "[32]", "result": 0.59, "unit": "%"}, {"measurement": "viability, T/C", "setting": "[33]", "result": 3.86, "unit": "%"}, {"measurement": "viability, T/C", "setting": "[34]", "result": 0.35, "unit": "%"}, {"measurement": "viability, T/C", "setting": "[35]", "result": 0.23, "unit": "%"}, {"measurement": "viability, T/C", "setting": "[36]", "result": 3.87, "unit": "%"}]}, {"smiles": "C=C(F)C(=O)N1CCN(c2nc(OCC3CCCN3C)nc3c2CCN(c2cccc4cccc(Cl)c24)C3)CC1CC#N", "note": "(centres undefined) + CNC(=O)c1ccc(Nc2nc(OC3CCCC3)c3c(-c4ccc5nc(C)oc5c4)c[nH]c3n2)c(OC)c1", "values": [{"measurement": "pIC50", "setting": "second compound 0.0316 µM", "result": 5.29}, {"measurement": "pIC50", "setting": "second compound 0.1 µM", "result": 5.29}, {"measurement": "pIC50", "setting": "second compound 0.316 µM", "result": 5.29}, {"measurement": "pIC50", "setting": "second compound 1 µM", "result": 5.34}, {"measurement": "pIC50", "setting": "second compound 3.16 µM", "result": 5.32}, {"measurement": "pIC50", "setting": "second compound 10 µM", "result": 5.39}, {"measurement": "viability, T/C", "setting": "[1]", "result": 108, "unit": "%"}, {"measurement": "viability, T/C", "setting": "[2]", "result": 115, "unit": "%"}, {"measurement": "viability, T/C", "setting": "[3]", "result": 98.6, "unit": "%"}, {"measurement": "viability, T/C", "setting": "[4]", "result": 99.7, "unit": "%"}, {"measurement": "viability, T/C", "setting": "[5]", "result": 85.7, "unit": "%"}, {"measurement": "viability, T/C", "setting": "[6]", "result": 1.18, "unit": "%"}, {"measurement": "viability, T/C", "setting": "[7]", "result": 104, "unit": "%"}, {"measurement": "viability, T/C", "setting": "[8]", "result": 101, "unit": "%"}, {"measurement": "viability, T/C", "setting": "[9]", "result": 96.2, "unit": "%"}, {"measurement": "viability, T/C", "setting": "[10]", "result": 97.7, "unit": "%"}, {"measurement": "viability, T/C", "setting": "[11]", "result": 81.5, "unit": "%"}, {"measurement": "viability, T/C", "setting": "[12]", "result": 4.78, "unit": "%"}, {"measurement": "viability, T/C", "setting": "[13]", "result": 102, "unit": "%"}, {"measurement": "viability, T/C", "setting": "[14]", "result": 98.6, "unit": "%"}, {"measurement": "viability, T/C", "setting": "[15]", "result": 89.3, "unit": "%"}, {"measurement": "viability, T/C", "setting": "[16]", "result": 107, "unit": "%"}, {"measurement": "viability, T/C", "setting": "[17]", "result": 83.9, "unit": "%"}, {"measurement": "viability, T/C", "setting": "[18]", "result": 1.64, "unit": "%"}, {"measurement": "viability, T/C", "setting": "[19]", "result": 100, "unit": "%"}, {"measurement": "viability, T/C", "setting": "[20]", "result": 89.7, "unit": "%"}, {"measurement": "viability, T/C", "setting": "[21]", "result": 89.3, "unit": "%"}, {"measurement": "viability, T/C", "setting": "[22]", "result": 92.4, "unit": "%"}, {"measurement": "viability, T/C", "setting": "[23]", "result": 72.9, "unit": "%"}, {"measurement": "viability, T/C", "setting": "[24]", "result": 2.52, "unit": "%"}, {"measurement": "viability, T/C", "setting": "[25]", "result": 85.3, "unit": "%"}, {"measurement": "viability, T/C", "setting": "[26]", "result": 90.9, "unit": "%"}, {"measurement": "viability, T/C", "setting": "[27]", "result": 92.9, "unit": "%"}, {"measurement": "viability, T/C", "setting": "[28]", "result": 91.1, "unit": "%"}, {"measurement": "viability, T/C", "setting": "[29]", "result": 77.3, "unit": "%"}, {"measurement": "viability, T/C", "setting": "[30]", "result": 3.14, "unit": "%"}, {"measurement": "viability, T/C", "setting": "[31]", "result": 86.3, "unit": "%"}, {"measurement": "viability, T/C", "setting": "[32]", "result": 82.7, "unit": "%"}, {"measurement": "viability, T/C", "setting": "[33]", "result": 83.4, "unit": "%"}, {"measurement": "viability, T/C", "setting": "[34]", "result": 80.8, "unit": "%"}, {"measurement": "viability, T/C", "setting": "[35]", "result": 62.8, "unit": "%"}, {"measurement": "viability, T/C", "setting": "[36]", "result": 3.36, "unit": "%"}]}]}
